Reference: paper PMC12486854, “Targeting mycobacterial transpeptidases: evaluating the roles of Ldt and PBP inhibition in suppressing Mycobacterium smegmatis” (Antimicrobial Agents and Chemotherapy, 2025)
Like-named read-outs stand apart in the source and are kept apart here.

How the values were obtained:
[1] = test system: Mycobacterium smegmatis (Msm); assay: microbe, parasite or virus in culture; conditions: without clavulanic acid, 96 h
LdtMt2 [2] = biological target: T1, LdtMt2 (Mycobacterium tuberculosis, UniProt I6Y9J2); assay: biochemical
T1 construct: gene ldtB
T1 sequence (I6Y9J2 35-408): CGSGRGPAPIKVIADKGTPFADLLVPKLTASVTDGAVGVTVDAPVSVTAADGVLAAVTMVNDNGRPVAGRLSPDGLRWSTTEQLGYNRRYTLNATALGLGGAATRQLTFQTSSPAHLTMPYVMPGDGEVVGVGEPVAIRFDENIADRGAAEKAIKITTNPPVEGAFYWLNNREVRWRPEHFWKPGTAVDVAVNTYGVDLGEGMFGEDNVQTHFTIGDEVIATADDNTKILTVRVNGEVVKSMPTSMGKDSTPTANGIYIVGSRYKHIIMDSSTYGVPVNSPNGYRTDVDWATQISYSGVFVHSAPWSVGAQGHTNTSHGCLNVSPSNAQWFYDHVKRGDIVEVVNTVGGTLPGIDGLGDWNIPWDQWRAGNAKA

Mtb PBP3 Δ1-122 [3] = biological target: T2, Mtb PBP3 Δ1-122 (Mycobacterium tuberculosis, UniProt L0T911); assay: biochemical
T2 construct: gene pbpB; N-terminally truncated (residues 1-122 removed), codon-optimised gene in pCold, E. coli BL21(DE3), His tag cleaved with 3C protease, calculated mass 60,148 Da, observed 60,152 Da
T2 sequence (L0T911 whole entry, looked up, stated change not applied, the tested form may be a part): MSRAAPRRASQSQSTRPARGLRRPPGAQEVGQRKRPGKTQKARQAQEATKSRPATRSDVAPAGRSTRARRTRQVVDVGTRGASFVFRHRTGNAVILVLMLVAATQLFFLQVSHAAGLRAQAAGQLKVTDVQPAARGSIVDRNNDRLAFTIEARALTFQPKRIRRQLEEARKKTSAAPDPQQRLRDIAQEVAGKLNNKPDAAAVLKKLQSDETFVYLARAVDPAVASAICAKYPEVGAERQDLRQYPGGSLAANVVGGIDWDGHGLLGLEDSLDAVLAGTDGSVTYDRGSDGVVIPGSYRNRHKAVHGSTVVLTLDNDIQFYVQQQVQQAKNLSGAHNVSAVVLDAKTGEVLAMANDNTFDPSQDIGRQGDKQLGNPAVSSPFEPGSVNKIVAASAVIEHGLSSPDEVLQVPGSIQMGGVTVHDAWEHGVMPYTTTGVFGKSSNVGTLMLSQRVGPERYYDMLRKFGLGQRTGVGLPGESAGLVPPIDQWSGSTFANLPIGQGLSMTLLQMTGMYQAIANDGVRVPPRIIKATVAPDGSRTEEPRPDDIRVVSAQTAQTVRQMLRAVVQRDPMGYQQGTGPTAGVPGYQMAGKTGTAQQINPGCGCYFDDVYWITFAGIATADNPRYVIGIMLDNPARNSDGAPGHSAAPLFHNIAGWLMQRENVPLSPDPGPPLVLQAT

[4] = test system: Mycobacterium smegmatis (Msm); conditions: without clavulanic acid; 96 h
LdtMt2 [5] = biological target: T1, LdtMt2; assay: biochemical; remark: listed apart in the source
Mtb PBP3 Δ1-122 [6] = biological target: T2, Mtb PBP3 Δ1-122; assay: biochemical; format: biochemical
[7] = test system: Mycobacterium smegmatis (Msm); design: broth microdilution MIC, resazurin read-out, 4 days at 37 C; conditions: without clavulanic acid; 96 h
[8] = 10 min pre-incubation, read-out: pIC50 LdtMt2 (converted)

In the case of O=C(OCN1C(=O)C=CC1=O)c1ccccc1 [compound 20], the “MIC Msm (µg/mL), no clavulanic acid” value [1] is reported as 64 µg/mL.
Molecule O=[N+]([O-])c1ccc(S(=O)(=O)c2ccc(Br)cc2)nc1 [compound 35, 35] has a kinact/KI (LdtMt2 [2]; read-out: kinact/KI LdtMt2) of 272 M⁻¹ s⁻¹.
For N#Cn1c(-c2ccncc2)nc2ccc(C(=O)c3ccccc3)cc21 [compound 26], the “MIC Msm (µg/mL), no clavulanic acid” value [1] was 16 µg/mL.
In the case of C[C@@H](O)[C@H]1C(=O)N2C(C(=O)O)=C([C@H]3CCCO3)S[C@H]12 [compound 1, faropenem], the “MIC Msm (µg/mL), no clavulanic acid” value [1] is reported as 16 µg/mL.
For O=C(O)[C@H]1/C(=C/CO)O[C@@H]2CC(=O)N21 [compound 17, clavulanic acid], the MIC ([1]; Mycolicibacterium smegmatis, read-out: MIC Msm (µg/mL), no clavulanic acid) was 128 µg/mL and the IC50 (Mtb PBP3 Δ1-122 [3]) was over 398 µM.
In the case of N#Cc1ccc(S(=O)(=O)c2ccccc2)nc1 [compound 41, 41], the “MIC Msm (µg/mL), no clavulanic acid” value [4] is reported as over 128 µg/mL, the IC50 (LdtMt2 [5]; [8]) is reported as 25.1 µM and the kinact/KI (LdtMt2 [2]; read-out: kinact/KI LdtMt2) is reported as under 10 M⁻¹ s⁻¹.
In the case of C[C@@H](O)[C@H]1C(=O)N2C(C(=O)O)=C(SCCN=CN)C[C@H]12 [compound 2, imipenem], the “MIC Msm (µg/mL), no clavulanic acid” value [1] is reported as 0.125 µg/mL and the IC50 (Mtb PBP3 Δ1-122 [3]) is reported as 0.501 µM.
In the case of O=c1c2cc(Cl)c(Cl)cc2sn1CCO [compound 21, 21], the “MIC Msm (µg/mL), no clavulanic acid” value [1] is reported as 32 µg/mL and the IC50 (Mtb PBP3 Δ1-122 [3]) is reported as 79.4 µM.
COc1ccc(CN2C(=O)C(=O)c3cc(Br)cc(C)c32)cc1OC [compound 22, 22] gave an IC50 (Mtb PBP3 Δ1-122 [6]) of over 398 µM.
Clc1ccccn1 [compound 44, 44] was tested, and the “MIC Msm (µg/mL), no clavulanic acid” value [4] was over 128 µg/mL, the IC50 (LdtMt2 [5]) was over 39.8 µM and the kinact/KI (LdtMt2 [2]; read-out: kinact/KI LdtMt2 (M^-1 s^-1)) was under 10 M⁻¹ s⁻¹.
N#Cc1cccnc1S(=O)(=O)c1ccccc1 [compound 42, 42] was tested, and the “MIC Msm (µg/mL), no clavulanic acid” value [4] was over 128 µg/mL, the IC50 (LdtMt2 [5]; [8]) was over 39.8 µM and the kinact/KI (LdtMt2 [2]; read-out: kinact/KI LdtMt2) was under 10 M⁻¹ s⁻¹.
For COc1ccc(S(=O)(=O)c2ccccc2)nc1 [compound 40, 40], the “MIC Msm (µg/mL), no clavulanic acid” value [4] was over 128 µg/mL, the IC50 (LdtMt2 [5]; [8]) was over 39.8 µM and the kinact/KI (LdtMt2 [2]; read-out: kinact/KI LdtMt2) was under 10 M⁻¹ s⁻¹.
With CC[C@@H](CO)NCCN[C@@H](CC)CO [Ethambutol] the “MIC Msm (µg/mL), no clavulanic acid” value [7] was 0.25 µg/mL.
With Nc1ncc(S(=O)(=O)c2ccc([N+](=O)[O-])cc2)s1 [compound 45, 45] the “MIC Msm (µg/mL), no clavulanic acid” value [4] was over 128 µg/mL.
In the case of COc1ccc(CN2C(=O)C(=O)c3cc(Br)cc(C)c32)cc1OC [compound 22], the “MIC Msm (µg/mL), no clavulanic acid” value [1] is reported as over 128 µg/mL.
O=[N+]([O-])c1ccc(S(=O)(=O)c2ccccc2)cn1 [compound 32, 32] was tested, and the “MIC Msm (µg/mL), no clavulanic acid” value [4] was 4 µg/mL, the IC50 (LdtMt2 [5]; [8]) was 25.1 µM and the kinact/KI (LdtMt2 [2]; read-out: kinact/KI LdtMt2) was under 10 M⁻¹ s⁻¹.
O=C(C1OC1c1ccccc1)C1OC1c1ccccc1 (stereo not drawn) [compound 28, 28] was tested, and the pIC50 (Mtb PBP3 Δ1-122 [6]) was under 3.4.
With O=[N+]([O-])c1cccnc1S(=O)(=O)c1ccccc1 [compound 36, 36] the “MIC Msm (µg/mL), no clavulanic acid” value [4] was 16 µg/mL, the IC50 (LdtMt2 [5]; [8]) was 25.1 µM and the kinact/KI (LdtMt2 [2]; read-out: kinact/KI LdtMt2) was under 10 M⁻¹ s⁻¹.
In the case of CO/N=C(\C(=O)N[C@@H]1C(=O)N2C(C(=O)O)=C(CSc3nc(=O)c(=O)[nH]n3C)CS[C@H]12)c1csc(N)n1 [compound 7, ceftriaxone], the “MIC Msm (µg/mL), no clavulanic acid” value [1] is reported as over 128 µg/mL.
For O=S(=O)(c1ccccc1)c1cccnc1 [compound 38, 38], the “MIC Msm (µg/mL), no clavulanic acid” value [4] was over 128 µg/mL, the IC50 (LdtMt2 [5]; [8]) was over 39.8 µM and the kinact/KI (LdtMt2 [2]; read-out: kinact/KI LdtMt2) was under 10 M⁻¹ s⁻¹.
In the case of O=[N+]([O-])c1ccc(S(=O)(=O)c2ncc(C(F)(F)F)cc2Cl)cc1 [compound 46, 46], the “MIC Msm (µg/mL), no clavulanic acid” value [4] is reported as over 128 µg/mL, the IC50 (LdtMt2 [5]; [8]) is reported as over 39.8 µM and the kinact/KI (LdtMt2 [2]; read-out: kinact/KI LdtMt2) is reported as under 10 M⁻¹ s⁻¹.
O=C1C(=O)N(Cc2cccc3ccccc23)c2ccc(Br)cc21 [compound 23, 23] was tested, and the “MIC Msm (µg/mL), no clavulanic acid” value [1] was over 128 µg/mL.
In the case of O=C1C=CC(=O)N1c1ccc(Oc2ccccc2)c(Cl)c1 [compound 19], the “MIC Msm (µg/mL), no clavulanic acid” value [1] is reported as 64 µg/mL and the IC50 (Mtb PBP3 Δ1-122 [3]) is reported as 100 µM.
Work on NC(=O)OCC1=C(C(=O)O)N2C(=O)C(NC(=O)C(=CS(=O)(=O)CCc3ccc(O)c(O)c3)c3csc(N)n3)C2SC1 (stereo not drawn) [compound 24, 24] yielded a pIC50 (Mtb PBP3 Δ1-122 [6]) of 6.1 ± 0.089.
O=[N+]([O-])c1ccc(Cl)nc1 [compound 43, 43] was tested, and the “MIC Msm (µg/mL), no clavulanic acid” value [4] was 32 µg/mL, the IC50 (LdtMt2 [5]; [8]) was over 39.8 µM and the kinact/KI (LdtMt2 [2]; read-out: kinact/KI LdtMt2) was under 10 M⁻¹ s⁻¹.
In the case of CC1(C)S[C@@H]2[C@H](NC(=O)C(C(=O)O)c3ccccc3)C(=O)N2[C@H]1C(=O)O (stereo partly drawn) [compound 15, carbenicillin], the IC50 (Mtb PBP3 Δ1-122 [6]) is reported as 3.98 µM.
CCC(C)[C@H](NC(=O)OCc1ccccc1)C(=O)CCl (stereo partly drawn) [compound 18] was tested, and the “MIC Msm (µg/mL), no clavulanic acid” value [1] was over 128 µg/mL.
NC(=O)C=CC(=O)Nc1ccc(Cl)cc1 [compound 30, 30] gave an IC50 (Mtb PBP3 Δ1-122 [6]) of over 398 µM.
For O=S(=O)(c1ccccc1)c1ccncc1 [compound 39, 39], the “MIC Msm (µg/mL), no clavulanic acid” value [4] was over 128 µg/mL, the IC50 (LdtMt2 [5]; [8]) was over 39.8 µM and the kinact/KI (LdtMt2 [2]; read-out: kinact/KI LdtMt2) was under 10 M⁻¹ s⁻¹.
In the case of N#Cn1c(-c2cc(F)cc(C(F)(F)F)c2)nc2ccccc21 [compound 25, 25], the IC50 (Mtb PBP3 Δ1-122 [6]) is reported as over 398 µM and the “MIC Msm (µg/mL), no clavulanic acid” value [1] is reported as 48 µg/mL.
For CC1(C)S[C@@H]2[C@H](NC(=O)[C@H](N)c3ccccc3)C(=O)N2[C@H]1C(=O)O [compound 11, ampicillin], the “MIC Msm (µg/mL), no clavulanic acid” value [1] was over 128 µg/mL.
Molecule CCC(C)[C@H](NC(=O)OCc1ccccc1)C(=O)CCl (stereo partly drawn) [compound 18, 18] has a pIC50 (Mtb PBP3 Δ1-122 [6]) of under 3.4.
For C[C@@H](O)[C@H]1C(=O)N2C(C(=O)O)=C(S[C@@H]3CN[C@H](C(=O)Nc4cccc(C(=O)O)c4)C3)[C@H](C)[C@H]12 [ertapenem], the “MIC Msm (µg/mL), no clavulanic acid” value [1] was 4 µg/mL.
O=[N+]([O-])c1ccc(S(=O)(=O)c2ccccc2)nc1 [compound 31, 31] was tested, and the IC50 (Mtb PBP3 Δ1-122 [6]) was over 398 µM, the “MIC Msm (µg/mL), no clavulanic acid” value [1] was 8 µg/mL and the IC50 (LdtMt2 [5]; [8]) was 5.01 µM. It also gave a kinact/KI (LdtMt2 [2]; read-out: kinact/KI LdtMt2) of 52.6 M⁻¹ s⁻¹.
C[C@@H](O)[C@H]1C(=O)N2C(C(=O)O)=C(S[C@@H]3CN[C@H](C(=O)N(C)C)C3)[C@H](C)[C@H]12 [meropenem] was tested, and the “MIC Msm (µg/mL), no clavulanic acid” value [1] was 2 µg/mL.
For O=[N+]([O-])c1ccc(S(=O)(=O)c2ccc(Cl)cc2)nc1 [compound 34, 34], the kinact/KI (LdtMt2 [2]; read-out: kinact/KI LdtMt2) was 86.9 M⁻¹ s⁻¹.
With C[C@@H](O)[C@H]1C(=O)N2C(C(=O)O)=C(S[C@@H]3CN[C@H](CNS(N)(=O)=O)C3)[C@H](C)[C@H]12 [doripenem] the “MIC Msm (µg/mL), no clavulanic acid” value [1] was 0.5 µg/mL.
CC1(C)S[C@@H]2[C@H](NC(=O)[C@H](N)c3ccc(O)cc3)C(=O)N2[C@H]1C(=O)O [compound 12, amoxicillin] was tested, and the “MIC Msm (µg/mL), no clavulanic acid” value [1] was over 128 µg/mL.
For CC(C)(O/N=C(\C(=O)N[C@@H]1C(=O)N2C(C(=O)[O-])=C(C[n+]3ccccc3)CS[C@H]12)c1csc(N)n1)C(=O)O [compound 6, ceftazidime], the IC50 (Mtb PBP3 Δ1-122 [6]) was 3.16 µM and the “MIC Msm (µg/mL), no clavulanic acid” value [1] was over 128 µg/mL.
O=S(=O)(c1ccccc1)c1ccccn1 [compound 37, 37] was tested, and the “MIC Msm (µg/mL), no clavulanic acid” value [4] was over 128 µg/mL, the IC50 (LdtMt2 [5]; [8]) was over 39.8 µM and the kinact/KI (LdtMt2 [2]; read-out: kinact/KI LdtMt2) was under 10 M⁻¹ s⁻¹.
For NC(=O)C=CC(=O)Nc1ccc(Cl)cc1 [compound 30], the “MIC Msm (µg/mL), no clavulanic acid” value [1] was over 128 µg/mL.
Molecule C[C@H]1[C@H](NC(=O)/C(=N\OC(C)(C)C(=O)O)c2csc(N)n2)C(=O)N1S(=O)(=O)O [compound 16, aztreonam] has an IC50 (Mtb PBP3 Δ1-122 [6]) of 158 µM.
COc1cccc(NC(=O)C(Cl)=C(Cl)S(=O)(=O)Cc2ccccc2Cl)n1 [compound 29, 29] gave a pIC50 (Mtb PBP3 Δ1-122 [6]) of under 3.4.
Molecule Cc1ccc(S(=O)(=O)c2ccc([N+](=O)[O-])cn2)cc1 [compound 33, 33] has a kinact/KI (LdtMt2 [2]; read-out: kinact/KI LdtMt2) of 51.9 M⁻¹ s⁻¹.
